From patent US5985926A, “Method for inhibiting intracellular viral replication” (Cell Therapeutics, Inc., priority 1997, dated 1999)
Entries after “also recorded” stand apart in the source; their conditions may differ. Read-outs that look alike come from different tables or passages of the source.

Experiments:
293-EBNA cells = assay: Viability of 293-EBNA cells, Alamar Blue; format: cell-based, human
Outline: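 Viability read with Alamar Blue, a vital dye reduced by mitochondrial dehydrogenases to a soluble product. Signal quantified as the absorbance difference between A570 and A600.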

[1] = tested on: HIV-1 in U1 cells (constitutive expression); assay: Constitutive HIV-1 p24 antigen expression in chronically infected U1 cells; format: cell-based, HIV-1; human cells; conditions: for suppression of constitutive HIV-1 expression (p24): U1 cells plated at high density, in words
Description: (§1) Another assay examined the effect of compounds on chronically HIV-1 infected U1 cells. A relatively high density of U1 cells at 10^4 cells/well were incubated in the absence or presence of compounds for 4 days. HIV-1 p24 antigen expression in the culture media was measured by using a ELISA kit (Abbott). Alternatively, U1 cells were plated at a relatively low density of 2×10^3 cell/well plus or minus TNF at 20 pg/ml and plus or minus compounds. The expression of HIV-1 p24 antigen in culture media was measured by ELISA four days later.
(§2) Stable cell lines 293tar, 293tat and 293tat2 were generated by transfections using conditions described in (Tate et al., FASEB J. 4:227-231, 1990) with the plasmid pHIV.AP alone or along with either pHIV.tat or pSV2tat72, respectively. The assay of HIV-1 p24 antigen expression in the chronically HIV-1-infected promonocytic line U1 after 4 days and in acutely infected peripheral blood lymphocytes (PBL) after 7 days were described (Peterson et al., J. Clin. Invest. 89:574-580, 1992, and Brighty et al., Proc Natl. Acad. Sci. USA 88:7802-7805, 1991).
(§3) This example illustrates that CT2576 inhibited both constitutive and cytokine-induced HIV expression in a chronically-infected U1 cell line. A chronically HIV-1 infected human promonocyte cell line, U1 (Poli et al., J. Exp. Med. 172:151-158, 1990), was used as a model to see if the inhibitory effect of CT2576 on HIV-LTR driven reporter gene expression could be extended to block HIV replication per se in infected cells. TNF-α and IL-6 have been reported to upregulate the expression of HIV-1 in U1 cells (Poli et al., Proc Natl. Acad. Sci. USA 91:108-112, 1994). U1 cells were plated onto 24-well microtiter plates to study the dose-response effect of CT2576 on the constitutive (10^4 cells/well), TNF-α or IL-6 mediated (2×10^3 cells/well) expression of HIV-1. CT2576 was capable of inhibiting the constitutive, the TNF-α mediated, as well as the IL-6 mediated expression of HIV in U1 cells with an IC50 value of less than 1 μM (FIG. 17).

[2] = tested on: HIV-1 in U1 cells (TNF-α mediated expression); assay: TNF-α-mediated HIV-1 p24 antigen expression in chronically infected U1 cells; format: cell-based, HIV-1; human cells; conditions: for suppression of TNFα-mediated HIV-1 expression (p24): in words
Description: as §1, §2, §3

U1 cells = assay: Cytotoxicity in U1 cells; format: cell-based, human
From the text: We studied the effect of CT-2576 on HIV expression in a chronically HIV-1 infected promonocytic U1 cell line (Folks et al., Science 238:800-802, 1987). […] TNF-α and other cytokines can induce HIV expression in U1 cells. U1 cells also express HIV constitutively when grown to a relatively high density. […] An inhibitor of viral reverse transcriptase is expected to only protect new cells from becoming infected but not to affect viral production from cells already infected with HIV. […] While TNF-α induces HIV expression through activation of NFκB, IL-6 and IL-1 also stimulates HIV expression through other pathways independent of NFκB activation in U1 cells.

SMILES | cytotoxic effect on 293-EBNA cells (Alamar Blue) (293-EBNA cells) | suppression of constitutive HIV-1 expression (p24) [1] | suppression of TNFα-mediated HIV-1 expression (p24) ([2]; U1 cells) | cytotoxicity in U1 cells at 25 μM (U1 cells; 25 μM, FIG. 12 bottom panel, TNFα) | toxic concentration (not toxic at concentrations up to), 293-EBNA cells (293-EBNA cells) | IC50 ([1]; Human immunodeficiency virus 1, 96 h, read-out: IC50, constitutive HIV expression, U1 cells, 4 days) | IC50 ([1]; read-out: IC50, constitutive HIV expression, U1 cells, 4 days) | IC50 ([2]; Human immunodeficiency virus 1, 96 h, read-out: IC50, TNF-α mediated HIV expression, U1 cells, 4 days) | IC50 ([2]; U1 cells, 4 days, read-out: IC50, TNF-α mediated HIV expression) | cytotoxicity in U1 cells, trypan-blue dye exclusion (U1 cells; trypan-blue dye exclusion assay)
CCCCCCCCNCC(O)CCCCCCCCCN1C(=O)CCN(C)C1=O (stereo not drawn) [CT1829, 3-(11-octylamino-10-hydroxyundecyl)-1-methyldihydrouracil] | no significant cytotoxic effect | suppressed constitutive HIV-1 expression | suppressed HIV-1 expression | some cytotoxicity |  |  |  |  |  | 
CCCCCCCCNCC(O)CCCCCCCCCn1c(=O)c2c(ncn2C)n(C)c1=O (stereo not drawn) [CT2576, 1-(11-octylamino-10-hydroxyundecyl)-3,7-dimethylxanthine] |  | the most effective; also recorded: inhibited; also recorded: suppressed constitutive HIV-1 expression | suppressed HIV-1 expression; also recorded: the most effective; also recorded: inhibited |  | > 35 µM | ~1000 nM | < 1000 nM | ~1000 nM | < 1000 nM | no cytotoxicity
